Columns and labels:
Type in all cases: physicochemical
[1] = Solid state photostress study under 2 times ICH conditions
Procedure: (§1) Solid State Stability: Solid state stability of Form A of a hydrochloride salt of Compound 1 was evaluated using Accelerated Stability Assessment Program (ASAP). Forced degradation storage conditions were used between 60-80° C. and 0-80% RH for up to 2 weeks. A photostress study under 2 times ICH conditions was also conducted in the solid state. The solid samples were analyzed for both chemical and chiral stability. At the end of the study, the crystalline form of the compound was verified by XRPD.

[2] = Long term solid state stability (double LDPE bags in HDPE container)
Procedure: Long Term Solid State Stability: Form A of a hydrochloride salt of Compound 1 (packaged in double LDPE bags in HDPE container) was stored up to 3 months at 25° C./60% RH, 30° C./65% RH, and 40° C./75% RH storage conditions. […] Therefore, a re-test period of 12 months is proposed when stored at or below 25° C.

[3] = Dynamic vapor sorption (DVS) hygroscopicity
Procedure: Dynamic vapor sorption (DVS) was measured using DVS advantage (Surface Measurement Systems Ltd). The samples were tested under isotherm (25° C.) at a targeted RH of 0 to 95% full cycle in step mode. For an isotherm test, the chamber temperature is maintained by a water bath at constant 25.0±1.0° C. The relative humidity in the sample chamber is generated by combining different flows of wet and dry nitrogen with variable flow rates. The analysis was performed in 10% RH increments. Sampling rate is 1 sec save data rate is 20 sec. The dm/dt (%) value was set at 0.001 with a dm/dt window of 5 min., a minimum stability duration time of 10 min, and a maximum stage time of 180 min. The sample's equilibrium weight corresponding to each RH was recorded. A sorption isotherm is obtained by plotting equilibrium moisture content versus RH.

[4] = Shear sensitivity (compression, XRPD); conditions: compressed under 700 and 1100 lbs for 1 minute
Procedure: Shear Sensitivity: Form A of a hydrochloride salt of Compound 1 was compressed under 700 and 1100 lbs for 1 minute and analyzed by XRPD.

[5] = Solid state stability, Accelerated Stability Assessment Program (ASAP)
Procedure: as §1

## Cl.O=C1CC[C@H](N2C(=O)c3cccc(NCc4ccc(CN5CC(N6CCOCC6)C5)cc4F)c3C2=O)C(=O)N1
[1]; 2x ICH Photo Stressed
  LC Purity (%): 94.80%
  R-isomer % area: 1.17 % area
[1]; Photo Stressed Control
  LC Purity (%): 98.45%
  R-isomer % area: 1.27 % area
[1]; photostability conditions (2 times ICH), solid state
  changes in assay: < 4%
[2]; 25° C./60% RH, 0 Month
  Appearance (Yellow powder): Conforms
  Chiral Purity (%): 96.0%
  Chromatographic Purity (%): 98.6%
  Solid forms (XRPD), consistent with Form A: Conforms
  Total Related Impurities (%): 1.41%
  Water (%): 1.4%
[2]; 25° C./60% RH, 1 Month
  Appearance (Yellow powder): Conforms
  Chiral Purity (%): 95.7%
  Chromatographic Purity (%): 98.5%
  Solid forms (XRPD), consistent with Form A: Conforms
  Total Related Impurities (%): 1.50%
  Water (%): 1.7%
[2]; 25° C./60% RH, 3 Month
  Appearance (Yellow powder): Conforms
  Chiral Purity (%): 95.7%
  Chromatographic Purity (%): 98.5%
  Solid forms (XRPD), consistent with Form A: Conforms
  Total Related Impurities (%): 1.55%
  Water (%): 1.9%
[2]; 25° C./60% RH, 30° C./65% RH and 40° C./75% RH for 3 months, double LDPE bags in HDPE container
  long term solid state stability: demonstrate stability
[2]; 30° C./65% RH, 0 Month
  Appearance (Yellow powder): Conforms
  Chiral Purity (%): 96.0%
  Chromatographic Purity (%): 98.6%
  Total Related Impurities (%): 1.41%
  Water (%): 1.4%
[2]; 30° C./65% RH, 1 Month
  Appearance (Yellow powder): Conforms
  Chiral Purity (%): 94.5%
  Chromatographic Purity (%): 98.4%
  Total Related Impurities (%): 1.56%
  Water (%): 1.9%
[2]; 30° C./65% RH, 3 Month
  Appearance (Yellow powder): Conforms
  Chiral Purity (%): 95.8%
  Chromatographic Purity (%): 98.4%
  Total Related Impurities (%): 1.63%
  Water (%): 2.0%
[2]; 40° C./75% RH, 0 Month
  Appearance (Yellow powder): Conforms
  Chiral Purity (%): 96.0%
  Chromatographic Purity (%): 98.6%
  Solid forms (XRPD), consistent with Form A: Conforms
  Total Related Impurities (%): 1.41%
  Water (%): 1.4%
[2]; 40° C./75% RH, 1 Month
  Appearance (Yellow powder): Conforms
  Chiral Purity (%): 96.0%
  Chromatographic Purity (%): 98.5%
  Solid forms (XRPD), consistent with Form A: Conforms
  Total Related Impurities (%): 1.52%
  Water (%): 1.8%
[2]; 40° C./75% RH, 3 Month
  Appearance (Yellow powder): Conforms
  Chiral Purity (%): 96.1%
  Chromatographic Purity (%): 98.4%
  Solid forms (XRPD), consistent with Form A: Conforms
  Total Related Impurities (%): 1.60%
  Water (%): 2.0%
[2]; when stored at or below 25° C.
  proposed re-test period: 12 months
[3]; after DVS
  solid form after DVS: remained as Form A
[3]; below 90% RH
  hygroscopicity (DVS): moderate hygroscopic
[3]; corresponding to the about 3.0% w/w uptake
  water uptake expressed as moles of water (DVS): about 1 mole
[3]; during two full cycles
  sorption/desorption reversibility (DVS): almost reversible
[3]; from dry up to 90% RH
  moisture picked up (DVS): ~2.9 % wt
[3]; increase in RH from about 0% to about 95%
  mass increase (DVS): about 3.0%
[3]; sorption at all humidities, FIG. 7
  water uptake (DVS): about 3.0 % w/w
[4]
  solid form after compression (XRPD): remained the same
[5]; 60-80° C., 0-80% RH, up to 2 weeks, except 80° C./0% RH after 1 week and 2 weeks
  changes in assay: < 5%
[5]; 60° C., 50% RH, 7 days
  LC Purity (%): 98.51%
  R-isomer % area: 1.26 % area
[5]; 60° C., 50% RH, 14 days
  LC Purity (%): 98.47%
  R-isomer % area: 1.28 % area
[5]; 70° C., 20% RH, 7 days
  LC Purity (%): 98.28%
  R-isomer % area: 1.26 % area
[5]; 70° C., 20% RH, 14 days
  LC Purity (%): 98.50%
  R-isomer % area: 1.26 % area
[5]; 70° C., 75% RH, 7 days
  LC Purity (%): 98.48%
  R-isomer % area: 1.34 % area
[5]; 70° C., 75% RH, 14 days
  LC Purity (%): 98.24%
  R-isomer % area: 1.49 % area
[5]; 80° C., 0% RH, 7 days
  LC Purity (%): 91.18%
  R-isomer % area: 1.77 % area
[5]; 80° C., 0% RH, 14 days
  LC Purity (%): 86.98%
  R-isomer % area: 1.28 % area
[5]; 80° C., 40% RH, 7 days
  LC Purity (%): 98.32%
  R-isomer % area: 1.77 % area
[5]; 80° C., 40% RH, 14 days
  LC Purity (%): 98.29%
  R-isomer % area: 1.30 % area
[5]; 80° C., 70% RH, 7 days
  LC Purity (%): 98.43%
  R-isomer % area: 1.36 % area
[5]; 80° C., 70% RH, 14 days
  LC Purity (%): 98.21%
  R-isomer % area: 1.45 % area
[5]; 80° C./70% RH after 10 days vs control
  change of crystalline form (XRPD): No change of crystalline form
[5]; ASAP stability results
  ASAP stability conclusion: can be considered stable
[5]; Heat/Humidity Control
  LC Purity (%): 98.44%
  R-isomer % area: 1.26 % area
[5]; across all conditions, maximum under high humidity conditions
  maximum change in chiral purity: ≤ 0.2%

From US11578056B2, “Solid forms comprising (S)-2-(2,6-dioxopiperidin-3-yl)-4-((2-fluoro-4-((3-morpholinoazetidin-1-yl)methyl)benzyl)amino)isoindoline-1,3-dione and salts thereof, and compositions comprising and methods of using the same” (Celgene Corporation, priority 2019, dated 2023)
